According to ChEMBL document CHEMBL3885861, “Open TG-GATES”:

Species on record: Rattus norvegicus
Test: Open TG-GATES - Regimen: Daily Repeat
Type: toxicity, organism-based, Sprague-Dawley
Set-up: regimen Daily Repeat, gender Male, age 6 weeks
Conditions: in vivo, po, route gavage; for APTT / Bas / Eos / Fbg / Hb / Ht / Lym / MCH / MCHC / MCV / Mono / Neu / PT / Plat / RBC / Ret / WBC: tissue Blood; for KIDNEY_L / KIDNEY_R / KIDNEY_TOTAL: tissue Kidney; for LIVER: tissue Liver; for A/G / ALP / ALT / AST / BUN / CRE / Ca / Cl / DBIL / GLC / IP / K / LDH / Na / PL / RALB / TBIL / TC / TG / TP / gamma-GTP: tissue Plasma
[1] = 0 mg/kg, 72 h, dose level Control, time 3 day
[2] = 0 mg/kg, […], dose level Control, time 7 day
[3] = 0 mg/kg, […], dose level Control, time 14 day
[4] = 0 mg/kg, […], dose level Control, time 28 day
[5] = 60 mg/kg, 72 h, dose level Low, time 3 day
[6] = 60 mg/kg, […], dose level Low, time 7 day
[7] = 60 mg/kg, […], dose level Low, time 14 day
[8] = 60 mg/kg, […], dose level Low, time 28 day

## CCOC(=O)[C@H](CCc1ccccc1)N[C@@H](C)C(=O)N1CCC[C@H]1C(=O)O
[1]
  TERMINAL_BW: 253.2 g
  APTT: 16 s
  Bas: 0%
  Eos: 1%
  Fbg: 242 mg/dL
  Hb: 13.2 g/dL
  Ht: 40.1%
  Lym: 73.6%
  MCH: 21 pg
  MCHC: 32.9%
  MCV: 63.9 fL
  Mono: 7.8%
  Neu: 17.4%
  PT: 11.8 s
  Plat: 123.1 x10_4/uL
  RBC: 627.6 x10_4/ul
  Ret: 6.6%
  WBC: 111.6 x10_2/uL
  KIDNEY_L: 1.1 g
  KIDNEY_R: 1.1 g
  KIDNEY_TOTAL: 2.2 g
  LIVER: 12.4 g
  A/G: 1.8
  ALP: 993.8 IU/L
  ALT: 38.6 IU/L
  AST: 63.4 IU/L
  BUN: 19 mg/dL
  CRE: 0.5 mg/dL
  Ca: 11 mg/dL
  Cl: 105 meq/L
  DBIL: 0.022 mg/dL
  GLC: 209.8 mg/dL
  IP: 9 mg/dL
  K: 4.7 meq/L
  LDH: 82.2 IU/L
  Na: 141.4 meq/L
  PL: 149.6 mg/dL
  RALB: 3.8 g/dL
  TBIL: 0.4 mg/dL
  TC: 81 mg/dL
  TG: 114.6 mg/dL
  TP: 5.9 g/dL
  gamma-GTP: 1.2 IU/L
[2]
  TERMINAL_BW: 279.2 g
  APTT: 16.4 s
  Bas: 0%
  Eos: 1.2%
  Fbg: 227.8 mg/dL
  Hb: 13.9 g/dL
  Ht: 41.9%
  Lym: 78.8%
  MCH: 21.4 pg
  MCHC: 33.3%
  MCV: 64.6 fL
  Mono: 6%
  Neu: 14%
  PT: 11.6 s
  Plat: 121.8 x10_4/uL
  RBC: 649.6 x10_4/ul
  Ret: 6.5%
  WBC: 122 x10_2/uL
  KIDNEY_L: 1.2 g
  KIDNEY_R: 1.2 g
  KIDNEY_TOTAL: 2.4 g
  LIVER: 14 g
  A/G: 2.1
  ALP: 778.4 IU/L
  ALT: 37.8 IU/L
  AST: 62 IU/L
  BUN: 18.2 mg/dL
  CRE: 0.5 mg/dL
  Ca: 10.7 mg/dL
  Cl: 106 meq/L
  DBIL: 0.002 mg/dL
  GLC: 207 mg/dL
  IP: 8.6 mg/dL
  K: 5 meq/L
  LDH: 89.2 IU/L
  Na: 140.2 meq/L
  PL: 157.4 mg/dL
  RALB: 4 g/dL
  TBIL: 0.4 mg/dL
  TC: 78.2 mg/dL
  TG: 130.2 mg/dL
  TP: 5.9 g/dL
  gamma-GTP: 1.6 IU/L
[3]
  TERMINAL_BW: 338.3 g
  APTT: 16.5 s
  Bas: 0%
  Eos: 1%
  Fbg: 232.8 mg/dL
  Hb: 13.9 g/dL
  Ht: 41.7%
  Lym: 79.2%
  MCH: 20.6 pg
  MCHC: 33.3%
  MCV: 61.8 fL
  Mono: 5.8%
  Neu: 13.4%
  PT: 11.4 s
  Plat: 115 x10_4/uL
  RBC: 675.8 x10_4/ul
  Ret: 4.1%
  WBC: 143.8 x10_2/uL
  KIDNEY_L: 1.3 g
  KIDNEY_R: 1.3 g
  KIDNEY_TOTAL: 2.6 g
  LIVER: 15.8 g
  A/G: 1.6
  ALP: 684 IU/L
  ALT: 31 IU/L
  AST: 58.2 IU/L
  BUN: 19.6 mg/dL
  CRE: 0.6 mg/dL
  Ca: 10.9 mg/dL
  Cl: 106.4 meq/L
  DBIL: 0 mg/dL
  GLC: 209.6 mg/dL
  IP: 8 mg/dL
  K: 4.4 meq/L
  LDH: 105.2 IU/L
  Na: 140 meq/L
  PL: 162.2 mg/dL
  RALB: 3.9 g/dL
  TBIL: 0.3 mg/dL
  TC: 77 mg/dL
  TG: 172 mg/dL
  TP: 6.2 g/dL
  gamma-GTP: 1.4 IU/L
[4]
  TERMINAL_BW: 401.8 g
  APTT: 17.7 s
  Bas: 0%
  Eos: 1.2%
  Fbg: 249 mg/dL
  Hb: 15.3 g/dL
  Ht: 46.4%
  Lym: 80%
  MCH: 19.3 pg
  MCHC: 33%
  MCV: 58.3 fL
  Mono: 6%
  Neu: 12.6%
  PT: 11.6 s
  Plat: 107.8 x10_4/uL
  RBC: 797.4 x10_4/ul
  Ret: 3.1%
  WBC: 125.5 x10_2/uL
  KIDNEY_L: 1.4 g
  KIDNEY_R: 1.4 g
  KIDNEY_TOTAL: 2.8 g
  LIVER: 16.1 g
  A/G: 1.9
  ALP: 643.2 IU/L
  ALT: 29.2 IU/L
  AST: 54.2 IU/L
  BUN: 19.2 mg/dL
  CRE: 0.7 mg/dL
  Ca: 10.7 mg/dL
  Cl: 107.2 meq/L
  DBIL: 0.036 mg/dL
  GLC: 202.6 mg/dL
  IP: 7 mg/dL
  K: 4.5 meq/L
  LDH: 61 IU/L
  Na: 140.2 meq/L
  PL: 145 mg/dL
  RALB: 4 g/dL
  TBIL: 0.3 mg/dL
  TC: 66.4 mg/dL
  TG: 128.2 mg/dL
  TP: 6.2 g/dL
  gamma-GTP: 1.4 IU/L
[5]
  TERMINAL_BW: 243.2 g
  APTT: 16.2 s
  Bas: 0%
  Eos: 0.8%
  Fbg: 233.6 mg/dL
  Hb: 13.1 g/dL
  Ht: 39.8%
  Lym: 82.6%
  MCH: 21.3 pg
  MCHC: 32.9%
  MCV: 64.8 fL
  Mono: 5.2%
  Neu: 11.4%
  PT: 11.6 s
  Plat: 124.4 x10_4/uL
  RBC: 614.6 x10_4/ul
  Ret: 5.5%
  WBC: 105.6 x10_2/uL
  KIDNEY_L: 1.1 g
  KIDNEY_R: 1.1 g
  KIDNEY_TOTAL: 2.2 g
  LIVER: 11.8 g
  A/G: 2
  ALP: 985.6 IU/L
  ALT: 32.8 IU/L
  AST: 63.2 IU/L
  BUN: 20.2 mg/dL
  CRE: 0.5 mg/dL
  Ca: 10.9 mg/dL
  Cl: 105.8 meq/L
  DBIL: 0.028 mg/dL
  GLC: 189.2 mg/dL
  IP: 8 mg/dL
  K: 5 meq/L
  LDH: 90.6 IU/L
  Na: 140.2 meq/L
  PL: 160 mg/dL
  RALB: 4 g/dL
  TBIL: 0.3 mg/dL
  TC: 81 mg/dL
  TG: 93 mg/dL
  TP: 6.1 g/dL
  gamma-GTP: 2 IU/L
[6]
  TERMINAL_BW: 259.7 g
  APTT: 15.6 s
  Bas: 0%
  Eos: 0.6%
  Fbg: 232 mg/dL
  Hb: 13.5 g/dL
  Ht: 40.7%
  Lym: 84.6%
  MCH: 20.6 pg
  MCHC: 33.2%
  MCV: 61.9 fL
  Mono: 5%
  Neu: 9.2%
  PT: 11.6 s
  Plat: 124.1 x10_4/uL
  RBC: 658.4 x10_4/ul
  Ret: 4.8%
  WBC: 134.2 x10_2/uL
  KIDNEY_L: 1.1 g
  KIDNEY_R: 1.1 g
  KIDNEY_TOTAL: 2.3 g
  LIVER: 12.2 g
  A/G: 2.1
  ALP: 880.6 IU/L
  ALT: 32.6 IU/L
  AST: 61.8 IU/L
  BUN: 21.2 mg/dL
  CRE: 0.6 mg/dL
  Ca: 10.9 mg/dL
  Cl: 104 meq/L
  DBIL: 0.002 mg/dL
  GLC: 209.2 mg/dL
  IP: 8.6 mg/dL
  K: 5 meq/L
  LDH: 116.2 IU/L
  Na: 138 meq/L
  PL: 168.4 mg/dL
  RALB: 4 g/dL
  TBIL: 0.3 mg/dL
  TC: 88.8 mg/dL
  TG: 121.2 mg/dL
  TP: 5.9 g/dL
  gamma-GTP: 1 IU/L
[7]
  TERMINAL_BW: 311.1 g
  APTT: 16.1 s
  Bas: 0%
  Eos: 1.2%
  Fbg: 247.4 mg/dL
  Hb: 14.3 g/dL
  Ht: 43%
  Lym: 76%
  MCH: 20.1 pg
  MCHC: 33.2%
  MCV: 60.7 fL
  Mono: 6.6%
  Neu: 16.2%
  PT: 11.3 s
  Plat: 118.7 x10_4/uL
  RBC: 710.6 x10_4/ul
  Ret: 3.5%
  WBC: 107.1 x10_2/uL
  KIDNEY_L: 1.3 g
  KIDNEY_R: 1.3 g
  KIDNEY_TOTAL: 2.5 g
  LIVER: 13.6 g
  A/G: 1.8
  ALP: 821.6 IU/L
  ALT: 34.4 IU/L
  AST: 65.2 IU/L
  BUN: 24.4 mg/dL
  CRE: 0.6 mg/dL
  Ca: 10.8 mg/dL
  Cl: 106 meq/L
  DBIL: 0 mg/dL
  GLC: 199.2 mg/dL
  IP: 8.4 mg/dL
  K: 5 meq/L
  LDH: 105.2 IU/L
  Na: 138.4 meq/L
  PL: 155.4 mg/dL
  RALB: 4 g/dL
  TBIL: 0.3 mg/dL
  TC: 73.2 mg/dL
  TG: 113.2 mg/dL
  TP: 6.3 g/dL
  gamma-GTP: 1.4 IU/L
[8]
  TERMINAL_BW: 389.4 g
  APTT: 16.8 s
  Bas: 0%
  Eos: 1%
  Fbg: 252.6 mg/dL
  Hb: 15.1 g/dL
  Ht: 45.4%
  Lym: 85.6%
  MCH: 19.3 pg
  MCHC: 33.3%
  MCV: 58 fL
  Mono: 4.4%
  Neu: 8.8%
  PT: 11.6 s
  Plat: 108.6 x10_4/uL
  RBC: 782.8 x10_4/ul
  Ret: 3.5%
  WBC: 132.2 x10_2/uL
  KIDNEY_L: 1.5 g
  KIDNEY_R: 1.5 g
  KIDNEY_TOTAL: 3 g
  LIVER: 16.3 g
  A/G: 1.8
  ALP: 658.6 IU/L
  ALT: 31.6 IU/L
  AST: 61.4 IU/L
  BUN: 20.8 mg/dL
  CRE: 0.6 mg/dL
  Ca: 10.8 mg/dL
  Cl: 105.8 meq/L
  DBIL: 0.046 mg/dL
  GLC: 198.6 mg/dL
  IP: 7.3 mg/dL
  K: 4.8 meq/L
  LDH: 66.4 IU/L
  Na: 137.6 meq/L
  PL: 144.4 mg/dL
  RALB: 4.1 g/dL
  TBIL: 0.3 mg/dL
  TC: 69.2 mg/dL
  TG: 90.2 mg/dL
  TP: 6.4 g/dL
  gamma-GTP: 1.2 IU/L
